According to US20100104524A1, “COSMETIC COMPOSITION FOR SKIN WHITENING COMPRISING ARCTIIN, ARCTIGENIN OR THE MIXTURE THEREOF AS ACTIVE” (priority 2007, published 2010):
Where two headings read alike, the source gives them in different places.

Assays:
Format in all cases: cell-based, mice
tyrosinase [1] = assay: Expression inhibition I of a melanin synthesis enzyme in melanocyte (tyrosinase band in gel); conditions: for Intensity of tyrosinase band: 100 □/□, 3 days culture, lower intensity = higher inhibition of tyrosinase biosynthesis, controls 123 (Control Exp 1) and 211 (Control Exp 2); for Inhibiting effect on biosynthesis of tyrosinase (in words): compared to Control Example 2 containing only a melanocyte stimulating hormone
Protocol: (§1) α-MSH, for an experiment for melanin synthesis inhibition, was dissolved in 10% DMSO (Dimethyl sulfoxide), and was used as 1 mM solution. B-16 melanoma (ATCC CRL 6323) cell line (derived from mice) was inoculated into a DMEM medium including 4.5 g/L of glucose, 10% serum, and 1% antibiotics, and was subcultured in 75[…] T-flask under 5% CO2 and at 37° C. The subcultured melanoma cell line was cultured in 75[…] T-flask for 24 hours, and was treated with 0.05% Trypsin containing 0.02% EDTA. Then, cells were separated, were inoculated in 75[…] T-flask, and were further cultured for 6 hours. Herein, the number of cells was 1×10^7 cells/flask. Then, a melanocyte-stimulating hormone was diluted in a DMEM medium to a final concentration 100[…]. Next, each of arctiin, arctigenin, matairesinol, oleanolic acid, betulinic acid, rutin, and ursolic acid was diluted in the DMEM medium to a final concentration of 10-1000 □/□ to carry out treatment of melanoma cells, and then, the cells were further cultured at 37° C. for 5 days. Next, the medium was obtained to measure absorbance at 475 nm, and through comparison of melanin synthesis, IC50 (□/□), that is, the density for inhibiting melanin synthesis by 50%, was calculated.
An experiment was carried out in the same manner as described in Experimental Example 1 except that each of arctiin, arctigenin, matairesinol, oleanolic acid, betulinic acid, rutin, and ursolic acid was added, and culture was further carried out for 3 days to obtain cells. Also, in order to compare the expression inhibition of a melanin synthesis enzyme, experiments on Control Example 1 containing no forsythia suspensa active substance and Control Example 2 containing a melanocyte stimulating hormone were carried out. Obtained cells were washed with sodium phosphate buffer two times, were treated with 0.1% triton X-100, and were reacted by a sonicator for 30 seconds. From the reaction solution, cell precipitate and supernatant were separated by using a high-speed centrifuge at 12,000 rpm for 30 minutes at 4° C. From the separated supernatant, protein was separated by using electrophoresis, and was reacted in a reaction solution containing 0.2% DOPA solution for about 8 hours. Then, the production of tyrosinase in gel was measured.

[2] = system: B-16 melanoma (ATCC CRL 6323) cell line; assay: Melanin synthesis inhibition (%) by arctiin, arctigenin and the mixture thereof; conditions: n = 3, 5 days
Protocol: The subcultured melanoma cell line was cultured in 75[…] T-flask for 24 hours, and was treated with 0.05% Trypsin containing 0.02% EDTA. Then, cells were separated, were inoculated in 75[…] T-flask, and were further cultured for 6 hours. Herein, the number of cells was 1×10^7 cells/flask. Then, a melanocyte-stimulating hormone was diluted in a DMEM medium to a final concentration 100[…]. Next, each of arctiin, arctigenin, matairesinol, oleanolic acid, betulinic acid, rutin, and ursolic acid was diluted in the DMEM medium to a final concentration of 10-1000 □/□ to carry out treatment of melanoma cells, and then, the cells were further cultured at 37° C. for 5 days. […] An experiment of melanin synthesis inhibition was carried out in the same manner as described in EXPERIMENTAL EXAMPLE 1, except the following processes. […] Next, the medium was obtained to measure absorbance at 475 nm, and melanin synthesis was compared. A melanin synthesis inhibition (%) was calculated according to Mathematical Formula 1, with a control value of cell cultures including only a melanocyte stimulating hormone. […] [formula]

tyrosinase [3] = assay: Expression inhibition II of a melanin synthesis enzyme from melanocyte (tyrosinase band in gel); conditions: 100 □/□ substance with melanocyte stimulating hormone 100; 3 days culture; controls 123 and 211
Protocol: The subcultured melanoma cell line was cultured in 75[…] T-flask for 24 hours, and was treated with 0.05% Trypsin containing 0.02% EDTA. Then, cells were separated, were inoculated in 75[…] T-flask, and were further cultured for 6 hours. Herein, the number of cells was 1×10^7 cells/flask. Then, a melanocyte-stimulating hormone was diluted in a DMEM medium to a final concentration 100[…]. Next, each of arctiin, arctigenin, matairesinol, oleanolic acid, betulinic acid, rutin, and ursolic acid was diluted in the DMEM medium to a final concentration of 10-1000 □/□ to carry out treatment of melanoma cells, and then, the cells were further cultured at 37° C. for 5 days. […] An expression inhibiting effect of a melanin synthesis enzyme from melanocyte, which can be achieved by arctiin, arctigenin, or the mixture thereof, was determined. An experiment was carried out in the same manner as described in Experimental Example 1 except that each of arctiin, arctigenin, a 1:3 mixture of arctiin and arctigenin, and a 3:1 mixture of arctiin and arctigenin prepared by Preparation Examples 1 and 2 was added and culture was further carried out for 3 days to obtain cells. […] And then, the production of tyrosinase was measured in electrophoresis gel.

[4] = system: B-16 melanoma (ATCC CRL 6323) cell line; assay: Melanin synthesis inhibition by forsythia suspensa active substances (IC50); conditions: for Melanin synthesis inhibition (in words): compared to other substances of Forsythia suspensa; for IC50: Mus musculus, B16, 120 h, read-out: Melanin synthesis inhibition IC50
Protocol: as §1

[5] = system: NIH/3T3 (ATCC CRL 1658) cell line; assay: Cytotoxicity on fibroblast cell (MTT); conditions: for Cell viability (%): 12 hours, MTT
Protocol: On a fibroblast cell, toxicity of arctiin, arctigenin, a 1:3 mixture of arctiin and arctigenin, and a 3:1 mixture of arctiin and arctigenin prepared by Preparation Examples 1 and 2 was measured, respectively. NIH/3T3 (ATCC CRL 1658) cell line (derived from mice) as a fibroblast cell, which was purchased, was inoculated into a DMEM medium including 4.5 g/L of glucose, 10% serum, and 1% antibiotics, and was subcultured in 75[…] T-flask at 37° C. The subcultured cell line was cultured under 5% CO2 for 24 hours, and then it was treated with 0.05% Trypsin containing 0.02% EDTA. Then, cells were separated, were inoculated into 96-well-flask (1×10^4 cells/well) and stabilized through culture for 6 hours. To the cells, each of arctiin, arctigenin, a 1:3 mixture of arctiin and arctigenin, and a 3:1 mixture of arctiin and arctigenin was added as noted in Table 5, and culture was further carried out for 12 hours. After the culture, 10[…] of MTT (3-(4,5-dimethylthiazol-2-yl) 2,5-diphenyl tetrazolin bromide) solution (5[…]/□) was added in each well, and culture was carried out for 4 hours. Then, 100[…] of DMSO (Dimethyl sulfoxide) solution was added, and absorbance was measured at O.D. 570 nm to calculate the cell viability. […] Herein, the cell viability of 100% was based on the absorbance in the case of no additional substance.

[6] = α-MSH-stimulated B-16 melanoma, 5 days, medium absorbance at 475 nm

With `COc1cc(CC2C(=O)OCC2Cc2ccc(OC)c(OC)c2)ccc1O` (stereo not shown) [Arctigenin, 4-[(3,4-Dimethoxyphenyl)methyl]dihydro-3-[(4-hydroxy-3-metoxyphenyl)methyl]-2(3H)-furanone] the “Intensity of tyrosinase band” value (tyrosinase [1]) was 135, the “Inhibiting effect on biosynthesis of tyrosinase (in words)” value (tyrosinase [1]) was “significantly high inhibiting effects” and the “Melanin synthesis inhibition (%)” value ([2]; final concentration 60 □/□) was 66.8%. The “Melanin synthesis inhibition (%)” value ([2]; final concentration 100 □/□) was 79.6%, the “Melanin synthesis inhibition (%)” value ([2]; final concentration 140 □/□) was 81.3% and the “Melanin synthesis inhibition (%)” value ([2]; final concentration 180 □/□) was 84.3%. The “Strength of tyrosinase band” value (tyrosinase [3]) was 135, the “Melanin synthesis inhibition (in words)” value [4] was “most effective” and the “Toxicity determination on cells” value ([5]; criteria of Table 6) was “non-toxic”. For the same molecule, the “Cell viability (%)” value ([5]; final concentration 20 □/□) was 101.2%, the “Cell viability (%)” value ([5]; final concentration 60 □/□) was 101.0% and the “Cell viability (%)” value ([5]; final concentration 100 □/□) was 99.8%. The “Cell viability (%)” value ([5]; final concentration 140 □/□) was 99.6% and the “Cell viability (%)” value ([5]; final concentration 180 □/□) was 99.7%.

`COc1ccc(CC2COC(=O)C2Cc2ccc(O[C@@H]3O[C@H](CO)[C@@H](O)[C@H](O)[C@H]3O)c(OC)c2)cc1OC` (stereo partly shown) [Arctiin, 4-[(3,4-Dimethoxyphenyl)methyl]dihydro-3-[(4-Glucose-3-metoxyphenyl)methyl]-2(3H)-furanone] was tested, and the “Intensity of tyrosinase band” value (tyrosinase [1]) was 155, the “Inhibiting effect on biosynthesis of tyrosinase (in words)” value (tyrosinase [1]) was “significantly high inhibiting effects” and the “Melanin synthesis inhibition (%)” value ([2]; final concentration 60 □/□) was 67.3%. The “Melanin synthesis inhibition (%)” value ([2]; final concentration 100 □/□) was 78.5%, the “Melanin synthesis inhibition (%)” value ([2]; final concentration 140 □/□) was 80.3% and the “Melanin synthesis inhibition (%)” value ([2]; final concentration 180 □/□) was 84.2%. The “Strength of tyrosinase band” value (tyrosinase [3]) was 155, the “Melanin synthesis inhibition (in words)” value [4] was “most effective” and the “Cell viabilities (range over tested concentrations)” value [5] was 94-100%. For the same molecule, the “Toxicity determination on cells” value [5] was “non-toxic”.

`C=C(C)[C@@H]1CC[C@]2(C(=O)O)CC[C@]3(C)[C@H](CC[C@@H]4[C@@]5(C)CC[C@H](O)C(C)(C)[C@@H]5CC[C@]43C)[C@@H]12` [Betulinic acid] was tested, and the “Intensity of tyrosinase band” value (tyrosinase [1]) was 170 and the IC50 [4, 6] was < 500 µg/mL.

In the case of `COc1cc(C[C@H]2COC(=O)[C@@H]2Cc2ccc(O)c(OC)c2)ccc1O` [Matairesinol], the “Intensity of tyrosinase band” value (tyrosinase [1]) is reported as 180 and the IC50 [4, 6] is reported as < 200 µg/mL.

With `CC1(C)CC[C@]2(C(=O)O)CC[C@]3(C)C(=CC[C@@H]4[C@@]5(C)CC[C@H](O)C(C)(C)[C@@H]5CC[C@]43C)[C@@H]2C1` [Oleanolic acid] the “Intensity of tyrosinase band” value (tyrosinase [1]) was 200 and the IC50 [4, 6] was < 1000 µg/mL.

`C[C@@H]1O[C@@H](OC[C@H]2O[C@@H](Oc3c(-c4ccc(O)c(O)c4)oc4cc(O)cc(O)c4c3=O)[C@H](O)[C@@H](O)[C@@H]2O)[C@H](O)[C@H](O)[C@H]1O` [Rutin] was tested, and the “Intensity of tyrosinase band” value (tyrosinase [1]) was 150 and the IC50 [4] was < 500 µg/mL.

For `C[C@H]1[C@H](C)CC[C@]2(C(=O)O)CC[C@]3(C)C(=CC[C@@H]4[C@@]5(C)CC[C@H](O)C(C)(C)[C@@H]5CC[C@]43C)[C@H]12` [Ursolic acid], the “Intensity of tyrosinase band” value (tyrosinase [1]) was 180 and the IC50 [4, 6] was < 500 µg/mL.
